Experimental data published in patent US12704502B2, “Methods and systems for determining metabolic poise and capacity of living cells” (AGILENT TECHNOLOGIES, INC., priority 2021, dated 2026).

Key:
[1] = system: Human Peripheral Blood CD4+ T cells
Procedure: (§1) Uncoupled respiration measurements were measured in adherent cells epithelioid carcinoma Panc-1 cells (ATCC, CRL-1469) with FCCP. Cells were cultured in Dulbecco's Modified Eagle's Medium (DMEM) supplemented with 10% FBS at 37 C, 5% CO2 incubator according to supplier information. Day before the assay, cells were detached using Trypsin-EDTA solution and seeded in XFe96 cell culture miniplates (Agilent) at 10,000 cells/well. Cells were incubated for 18 hr at 37 C, 5% CO2 incubator. To measure OCR, cells were washed, and cell culture medium was replaced by XF DMEM pH 7.4 supplemented with 10 mM glucose, 2 mM glutamine and 1 mM pyruvate.

[2] = system: epithelioid carcinoma Panc-1 cells; settings: 2 μM FCCP, FIGS. 1A-1C
Procedure: as §1

[3] = system: Human Peripheral Blood NK cells; settings: 1.5, 2, 2.5 or 3 μM, FIGS. 12A-12B
Procedure: NK cells were cultured as described herein (e.g., in Example 1).

FCCP
OCR after the rotenone+antimycin A injection ([1]; T cells, FIGS. 2B, 3B): overestimation of OCR | stability of uncoupled respiration during the 3 min of the measurement ([1]; T cells, after oligomycin, FIGS. 2A, 2C, 3A, 3C): inconsistent uncoupled respiration | maximal respiration in titration of uncoupler ([1]; naïve CD4+ T cells, 0.5, 1, 1.5, 2, 2.5 or 3 μM, FIGS. 4A-4B): not as robust nor was there an increase in a dose-dependent manner | oxygen consumption on addition of uncoupler [2]: robust increase in oxygen consumption | maximal respiration in titration of uncoupler [3]: not as robust
